Literature values as cited in patent US20260115234A1, “PRODUCTION & SECRETION OF AUXIN-LIKE MOLECULES IN BACTERIA” (SNIPR Biome ApS, priority 2023, published 2026).
Converted amounts (≈) assume the structure as drawn.

Test system: A549 human lung cancer cells
Details: not given

Row | Compound | EC50 cytotoxicity [µg/mL]
1 | O=C(O)c1c[nH]c2ccccc12 [ICA, indole-3-carboxylic acid] | 4.6 (≈ 28.5 µM)

Test system: RFP reporter in strain TG1
Details: relative fluorescence of plasmids in strain TG1 grown in LB media to saturation

Row | Compound | Measured Strength (Anderson Score)
2 | BBa_J23100: Anderson Promoter Collection constitutive promoter, Seq ID No: 5 (DNA TTGACGGCTAGCTCAGTCCTAGGTACAGTGCTAGC; expressed or natural sequence) | 1
3 | BBa_J23101: Anderson Promoter Collection promoter, Seq ID No: 6 (DNA TTTACAGCTAGCTCAGTCCTAGGTATTATGCTAGC; expressed or natural sequence) | 0.7
4 | BBa_J23102: Anderson Promoter Collection promoter, Seq ID No: 7 (DNA TTGACAGCTAGCTCAGTCCTAGGTACTGTGCTAGC; expressed or natural sequence) | 0.86
5 | BBa_J23103: Anderson Promoter Collection promoter, Seq ID No: 8 (DNA CTGATAGCTAGCTCAGTCCTAGGGATTATGCTAGC; expressed or natural sequence) | 0.01
6 | BBa_J23104: Anderson Promoter Collection promoter, Seq ID No: 9 (DNA TTGACAGCTAGCTCAGTCCTAGGTATTGTGCTAGC; expressed or natural sequence) | 0.72
7 | BBa_J23105: Anderson Promoter Collection promoter, Seq ID No: 10 (DNA TTTACGGCTAGCTCAGTCCTAGGTACTATGCTAGC; expressed or natural sequence) | 0.24
8 | BBa_J23106: Anderson Promoter Collection promoter, Seq ID No: 11 (DNA TTTACGGCTAGCTCAGTCCTAGGTATAGTGCTAGC; expressed or natural sequence) | 0.47
9 | BBa_J23107: Anderson Promoter Collection promoter, Seq ID No: 12 (DNA TTTACGGCTAGCTCAGCCCTAGGTATTATGCTAGC; expressed or natural sequence) | 0.36
10 | BBa_J23108: Anderson Promoter Collection promoter, Seq ID No: 13 (DNA CTGACAGCTAGCTCAGTCCTAGGTATAATGCTAGC; expressed or natural sequence) | 0.51
11 | BBa_J23109: Anderson Promoter Collection promoter, Seq ID No: 14 (DNA TTTACAGCTAGCTCAGTCCTAGGGACTGTGCTAGC; expressed or natural sequence) | 0.04
12 | BBa_J23110: Anderson Promoter Collection promoter, Seq ID No: 15 (DNA TTTACGGCTAGCTCAGTCCTAGGTACAATGCTAGC; expressed or natural sequence) | 0.33
13 | BBa_J23111: Anderson Promoter Collection promoter, Seq ID No: 16 (DNA TTGACGGCTAGCTCAGTCCTAGGTATAGTGCTAGC; expressed or natural sequence) | 0.58
14 | BBa_J23112: Anderson Promoter Collection promoter, Seq ID No: 17 (DNA CTGATAGCTAGCTCAGTCCTAGGGATTATGCTAGC; expressed or natural sequence) | 0
15 | BBa_J23113: Anderson Promoter Collection promoter, Seq ID No: 18 (DNA CTGATGGCTAGCTCAGTCCTAGGGATTATGCTAGC; expressed or natural sequence) | 0.01
16 | BBa_J23114: Anderson Promoter Collection promoter, Seq ID No: 19 (DNA TTTATGGCTAGCTCAGTCCTAGGTACAATGCTAGC; expressed or natural sequence) | 0.1
17 | BBa_J23115: Anderson Promoter Collection promoter, Seq ID No: 20 (DNA TTTATAGCTAGCTCAGCCCTTGGTACAATGCTAGC; expressed or natural sequence) | 0.15
18 | BBa_J23116: Anderson Promoter Collection promoter, Seq ID No: 21 (DNA TTGACAGCTAGCTCAGTCCTAGGGACTATGCTAGC; expressed or natural sequence) | 0.16
19 | BBa_J23117: Anderson Promoter Collection promoter, Seq ID No: 22 (DNA TTGACAGCTAGCTCAGTCCTAGGGATTGTGCTAGC; expressed or natural sequence) | 0.06
20 | BBa_J23118: Anderson Promoter Collection promoter, Seq ID No: 23 (DNA TTGACGGCTAGCTCAGTCCTAGGTATTGTGCTAGC; expressed or natural sequence) | 0.56

Test system: HIV replication in infected H9 lymphocytes
Details: not given

Row | IC50 inhibition of HIV replication [µg/mL] | Compound
21 | 16.4 | O=C(O)c1c[nH]c2ccccc12 [ICA, indole-3-carboxylic acid]

Test system: MCF-7 human breast cancer cells
Details: not given

Row | Compound | EC50 cytotoxicity [µg/mL]
22 | O=C(O)c1c[nH]c2ccccc12 [ICA, indole-3-carboxylic acid] | 12.9 (≈ 80 µM)
